Patent publication US20030181659A1, “Thrombopoietin receptor modulating peptide” (priority 2000, published 2003)
Read-outs that look alike come from different tables or passages of the source. Each block holds one molecule with its values, some of them ahead of it. Where a SMILES comes first, the peptide text is derived from it.

Legend:
carboplatin treated mice [1] = assay type: in vivo; conditions: for effects on other blood components: mouse, in vivo
Excerpt: The model used for the in vivo experiments was reported previously (Akahori et al. (1996) Stem Cells 14:678-689, Akahori et al. (1996) Br. J. Haematol. 94:722-728, Shibuya et al. (1998) Blood 91:37-45, Andrews et al. (1996) Stem Cells 14:661-677). Improvements and modifications that were introduced are indicated below.
Each test group (PBS, TPO, or TPO-Rp) was given as a single daily dose administered by intraperitoneal injection. Daily doses were begun on day 0 and continued throughout the duration of the experimental period (day 10). Two i.p. injections of carboplatin 90 mg/kg each (PBS for group 11) were given on days 0 and 4.
(§1) Blood collections were taken on days −0 (basal), 8, 11, 14, and 18. Blood was obtained by sampling from the tail of mice (8 week old male C57BL/6Y mice), followed by cauterisation. A volume of 80 μl of blood from each mouse was collected into a heparinized blood collection tube. The 80 μl of blood was then mixed with 160 μl of saline containing sufficient EDTA (0.225%) to provide for anticoagulation.
[…] Carboplatin is used to induce thrombocytopenia. In order to work with a model that is as similar as possible to clinical situations, a previously reported carboplatin model (Akahori et al. (1996) Stem Cells 14:678-689, Akahori et al. (1996) Br. J. Haematol. 94:722-728, Shibuya et al. (1998) Blood 91:37-45, Andrews et al. (1996) Stem Cells 14:661-677) has been carefully studied and modified accordingly. Additionally, a method for animal bleeds has been carefully studied, in order to work with animals that show the highest response to a given drug and which are at the same time under a minimum of stress (see Methods above). Thus, the dose of carboplatin has been increased to 180 mg/kg and was given by two intraperitoneal (i.p) injections on day 0 (half-dose) and day 4 (second half-dose). Carboplatin induced severe thrombocytopenia on day eight.

TPO-R [2] = molecular target: T1, TPO-R (Homo sapiens, UniProt P40238); assay: In vitro signalling assay, dose response (STAT5 phosphorylation); assay type: cell-based; conditions: dose response 0.3 nM to 30 μM
T1 construct: endogenous in cells; host or cells: TF-1 cells
T1 sequence (P40238 26-635): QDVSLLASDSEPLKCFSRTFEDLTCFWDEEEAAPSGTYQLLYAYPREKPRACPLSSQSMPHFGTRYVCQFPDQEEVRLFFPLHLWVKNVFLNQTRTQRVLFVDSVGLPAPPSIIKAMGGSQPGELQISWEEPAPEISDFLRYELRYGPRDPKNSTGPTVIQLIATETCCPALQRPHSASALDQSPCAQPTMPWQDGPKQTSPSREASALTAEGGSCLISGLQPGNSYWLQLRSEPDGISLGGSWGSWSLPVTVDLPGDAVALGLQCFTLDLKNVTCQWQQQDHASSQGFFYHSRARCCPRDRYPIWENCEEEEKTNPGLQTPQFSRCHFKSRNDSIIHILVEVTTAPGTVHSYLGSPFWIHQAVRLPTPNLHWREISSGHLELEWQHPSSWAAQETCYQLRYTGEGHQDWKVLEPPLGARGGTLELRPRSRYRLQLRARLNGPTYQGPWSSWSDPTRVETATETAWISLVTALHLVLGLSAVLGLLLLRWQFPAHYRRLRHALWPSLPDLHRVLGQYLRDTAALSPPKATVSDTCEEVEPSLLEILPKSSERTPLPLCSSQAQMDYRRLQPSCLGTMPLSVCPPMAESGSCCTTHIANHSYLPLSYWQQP
Procedure: (§2) Treatment of the cells: TF-1 cells were grown to an approximate density of 1×10^6 cells in RPMI 1640 media with 1× Penicillin/Streptomycin, 2 mM glutamin, 10% fetal bovine serum (Hyclone) and 1 ng/ml GM-CSF, centrifuged down and resuspended in media with 3% serum and no GM-CSF. The cells were starved for 14-18 hours at 37° C. (5% CO2), spun down and resuspended at a density of 1×10^6 cells/ml in a medium without serum and GM-CSF. 2 ml of cell suspension was treated with the oligopeptide or TPO (as indicated per experiment) at 37° C. for 30 min. (5% CO2). 10 ml of ice-cold cell wash buffer was added per Falcon tube and centrifuged down quickly at 4° C. and 3000 rpm,. The medium was carefully aspirated and the wash repeated twice with PBS.
The following steps were performed on ice. The medium was aspirated and 0.6 ml of 2× lysis buffer per tube was added. This was pipetted up and down and transferred to Eppendorf tubes, placed on ice for circa 30 min., and centrifuged at 14,000×g for 10 min. The supernatant (lysate) was used in immunoprecipitations.
Immunoprecipitations: 20-40 μL of GammaBind G Sepharose slurry was used per immunoprecipitation. The protein G beads were washed several times with 0.5× lysis buffer in Eppendorf tubes and 1-4 μg of PY-99 antibody (Santa Cruz-Biotechnology) was added per immunoprecipitation. The tubes were incubated with end-over-end rotation for 2 h at room temperature. The lysate was added and the tubes further incubated with end-over-end rotation overnight at 4° C. The beads were washed 3 times with 1× lysis buffer and once with 0.5 M Tris pH 6.5. 50 μl of SDS-sample buffer was added and the samples were boiled for 3 min prior to being applied to the gels.
Western blot analysis: about 10 μl/sample was run on a 8% Polyacrylamide mini gel, transferred to PVDF membrane (Millipore), blocked for 1 h in blocking buffer and incubated with αSTAT5 antibody (Santa Cruz-Biotechnology) overnight at 4° C. in an 1:1000 dilution. The membrane was washed, incubated with appropriate alkaline phosphatase conjugated secondary antibody, 1:2000 dilution at room temperature for 2 h. The PVDF-membrane was washed with Blotto and developed with NBT/BCIP (Cappel).
Dose-response curves of the present oligopeptides were performed and their activity was compared to the wild type TPO-Rp.
Peptide dose response activity was evaluated primarily by in vitro signalling assays. Phosphorylation and thus activation of STAT5, a substrate of JAK2 kinase that is activated by TPO-Rp signal transduction, was measured. Each oligopeptide activity was addressed through a broad range of concentrations. Peptides were tested at concentrations of 0.3, 3, 10, 30 nM and 0.1, 0.3, 3 and 30 μM TPO-Rp. Oligopeptide activity as a measurement of STAT5 phosphorylation in each experiment was compared to activity obtained with 10 ng/ml of TPO, a hormone concentration that gives a maximal activation and signalling through TPO-R. All the peptides were evaluated four to five times in independent experiments. All the data was collected, Western blots were scanned and the intensity of the STAT5 phosphorylation was quantified.
The activity of each oligopeptide was addressed as percent of its maximum activity; thus 100% activity was assigned to the value of STAT5 protein phosphorylation obtained with 30 μM oligopeptide concentration.

TPO-R [3] = molecular target: T1, TPO-R; assay: In vitro signalling assay (STAT5 phosphorylation in TF-1 cells) of stored peptide samples; assay type: cell-based; conditions: day 30, solution in water stored at −20° C.
Procedure: as §2
The following steps were performed on ice. The medium was aspirated and 0.6 ml of 2× lysis buffer per tube was added. […]
The activity of the oligopeptides of the present invention and wild type TPO-Rp was examined by in vitro signalling assays. […] Phosphorylation and thus activation of STATS, a substrate of JAK2 kinase that is activated by TPO-R signal transduction, was measured. […] All the peptides were evaluated three to four times in independent experiments. All the data were collected, Western blots were scanned, and intensity of the STAT5 phosphorylation was quantified.

carboplatin treated mice [4] = assay: Carboplatin (200 mg/kg) induced thrombocytopenia in mice; assay type: in vivo; conditions: for platelet number: carboplatin 200 mg/kg
Procedure: Each test group was given a single daily dose administered by intraperitoneal injection. Daily doses were begun on day 0 and continued throughout the duration of the experimental period (day 13). Minimal doses were given on indicated days: 0 and 4; 0, 4 and 8; 0, 4, 8 and 12; days 8 through 14. Two i.p. injections of carboplatin 100 mg/kg were given on days 0 and 4.
as §1, with “days 0” for “days −0”, “11, 14” for “11, 14,”, “18. Blodd” for “18. Blood”, “the tails” for “the tail”, “male C57BL/6J mice)” for “male C57BL/6Y mice),”
The dose of carboplatin has been increased to 200 mg/kg and was given as a cumulative dose by two intraperitoneal (i.p.) injections on day 0 (half-dose) and day 4 (second half-dose). Carboplatin induced severe thrombocytopenia on day eleven.

[5] = molecular target: thrombopoietin receptor (TPO-R) on TF-1 cells (UniProt P40238); assay: cell-based or functional assay

effects on other blood components (carboplatin treated mice [1]): None of the peptides used
Molecule: CC(C)C[C@H](NC(=O)[C@H](CCC(N)=O)NC(=O)[C@H](CC(C)C)NC(=O)[C@H](CCCNC(=N)N)NC(=O)[C@H](Cc1ccc(O)cc1)NC(=O)[C@H](CCCNC(=N)N)NC(=O)[C@H](CO)NC(=O)[C@H](C)NC(=O)[C@@H]1CCCN1C(=O)[C@H](C)NC(=O)[C@H](CC(C)C)NC(=O)[C@H](CCC(=O)O)NC(=O)[C@H](CC(C)C)NC(=O)[C@@H](NC(=O)CN)[C@@H](C)O)C(=O)O [SEQ ID No. 4] (H-GTLELAPASRYRLQL-OH; N-terminus and C-terminus assumed)
effect on platelet levels / thrombocytopenia (carboplatin treated mice [1]; dose not given, carboplatin 180 mg/kg): some effect on platelet levels | activity compared to wild type TPO-Rp (STAT5 phosphorylation) (TPO-R [2]): retained activity comparable to wild type TPO-Rp

Molecule: CC(C)C[C@H](NC(=O)[C@H](CCCNC(=N)N)NC(=O)[C@H](C)NC(=O)[C@H](CCCNC(=N)N)NC(=O)[C@H](CC(C)C)NC(=O)[C@H](CCC(N)=O)NC(=O)[C@H](CC(C)C)NC(=O)[C@H](CCCNC(=N)N)NC(=O)[C@H](Cc1ccc(O)cc1)NC(=O)[C@H](CCCNC(=N)N)NC(=O)[C@H](CO)NC(=O)[C@H](CCCNC(=N)N)NC(=O)[C@@H]1CCCN1C(=O)[C@H](CCCNC(=N)N)NC(=O)[C@H](CC(C)C)NC(=O)[C@H](CCC(=O)O)NC(=O)[C@H](CC(C)C)NC(=O)[C@@H](NC(=O)CNC(=O)CNC(=O)[C@H](CCCNC(=N)N)NC(=O)[C@H](C)N)[C@@H](C)O)C(=O)N[C@@H](CC(N)=O)C(=O)O [TPO-Rp wild type, ARGGTLELRPRSRYRLQLRARLN] (H-ARGGTLELRPRSRYRLQLRARLN-OH; N-terminus and C-terminus assumed)
platelet (thrombocyte) number, percent change from basal (carboplatin treated mice [1]; 30 μg/kg/day i.p. daily from day 0, carboplatin 180 mg/kg): significantly increased the thrombocyte number | platelet (thrombocyte) number, percent change from basal (carboplatin treated mice [1]; 300 μg/kg/day i.p. daily from day 0, carboplatin 180 mg/kg): significantly increased the thrombocyte number | survival rate of treated animals (carboplatin treated mice [1]; CHI-square analysis, carboplatin 180 mg/kg): statistically significant survival rate | effects on other blood components (carboplatin treated mice [1]): None of the peptides used | activity (STAT5 phosphorylation) after storage (TPO-R [3]): significant decrease in activity

Molecule: SEQ ID No. 1: oligopeptide A1-L18 of wild type TPO-Rp, 18 amino acids, without R9A, R11A substitutions (ARGGTLELRPRSRYRLQL; listed as Homo sapiens)
activity compared to wild type TPO-Rp (STAT5 phosphorylation) (TPO-R [2]): activity comparable to the wild type TPO-Rp

Molecule: SEQ ID No. 3: shortest oligopeptide, 15 amino acids long, G4-L18 of wild type TPO-Rp (GTLELRPRSRYRLQL; listed as Homo sapiens)
activity compared to wild type TPO-Rp (STAT5 phosphorylation) (TPO-R [2]): retained activity comparable to wild type TPO-Rp

activity compared to wild type TPO-Rp (STAT5 phosphorylation) (TPO-R [2]): activity identical to wild type TPO-Rp
Molecule: SEQ ID No. 5: oligopeptide G4-R21 of wild type TPO-Rp (GTLELRPRSRYRLQLRAR; listed as Homo sapiens)

activity compared to wild type TPO-Rp (STAT5 phosphorylation) (TPO-R [2]): activity identical to wild type TPO-Rp
Molecule: SEQ ID No. 6: oligopeptide G4-R21 of wild type TPO-Rp, R9A, R11A form (GTLELAPASRYRLQLRAR; listed as Homo sapiens)

Molecule: TPO: thrombopoietin, natural hormone, glycoprotein ligand of c-mpl (TPO-R)
platelet number (carboplatin treated mice [1]; 2.4 μg/kg/day i.p. daily, carboplatin 180 mg/kg): unable to prevent a decrease in platelets | platelet number (carboplatin treated mice [4]; 2.4 μg/kg/day days 0 through 13): again unable to protect decrease in platelets | platelet number (carboplatin treated mice [4]; 10 μg/kg/day days 0 through 13): some effect that does have statistical significance | effect on thrombocytopenia (carboplatin treated mice [4]; 10 μg/kg/day from day 8 through 14, carboplatin from day 0): did not show a significant effect on thrombocytopenia

STAT5 phosphorylation in TF-1 cells; TPO concentration giving maximal activation [5]: 10 ng/mL
Molecule: thrombopoietin (TPO) (from UniProt P40225 22-353) (ligand)
